In patent US20100215741A1, “PHARMACEUTICAL COMPOUNDS” (priority 2009, published 2010) one finds Ki and melting point data, which are given here for 15 molecules.

The target in data set [1] is T1, CB1 receptors (Mus musculus, UniProt P47746).
T1 construct: the complete brain (excluding the cerebellum) and the spleen were quickly dissected and kept in ice; from tissue; host or cells: mouse brain (excluding the cerebellum), membrane preparation
Kind of data set: radioreceptor binding, displacement of [3H]-CP-55,940, CB1 (brain). The method, then: (§1) The affinity of the compounds towards the CB1 and CB2 cannabinoidergic receptors was evaluated in vitro by radioreceptor binding studies using the following method.
(§2) The technique of the receptor binding allows to establish if, and with which affinity and specificity, a specific compound binds to a particular receptor. To evaluate the affinity of a specific compound to a particular receptor it is necessary to challenge in a particular tissue preparation wherein those specific receptors are present the compound to be tested with a radioactive labelled compound whose affinity for the same receptors is known. […] The amount of radioactivity present in the receptor-compound complex allows furthermore to stimate with great accuracy the amount of compound bound to the receptor. By said method it is therefore possible to stablish quickly the affinity of a new compound towards a specific receptor and thus to determine its pharmacological activity. With the same experimental protocol it is possible to evaluate the affinity of the compound towards other receptors and thus establish its specificity degree toward said other receptors.
(§3) The food and water were ad libitum.
(§4) The procedure adopted, based on the use of the compound [^3H]-CP-55,940 (New England Nuclear, Boston, Mass., USA), requires the use of the mouse brain as biological tissue for the evaluation of the affinity towards the CB1 receptors and of the mouse spleen for the affinity assay for the CB2 receptors.
(§5) The animals were sacrificed by cervical dislocation and the complete brain (excluding the cerebellum) and the spleen were quickly dissected and kept in ice.
(§6) The tissue was homogenized in 15 volumes (weight/-volume) of TME buffer (50 Mm Tris, 1 mM EDTA and 3 mM MgCl2, pH 7.4) by an Ultra-Turrax and subsequently centrifuged for 10 minutes at 1086×g in a centrifuge refrigerated at 4° C. The recovered supernatant was centrifuged at 45,000×g for 30 minutes at 4° C. by using a Beckman SW41 rotor and the obtained pellet was resuspended in 50 volumes of TME.
(§7) The thus obtained membranes (50-80 μg of proteins) were incubated in the presence of 1 nM of [^3H]-CP55.940 for 1 hour at 30° C. in a final volume of 0.5 ml of TME buffer containing […] (BSA). The non specific binding was measured in the presence of CP55.940 at a 1 μM concentration.
(§8) All the experiments were carried out in polypropylene test tubes pretreated with Sigma-Cote (Sigma Chemical Co. Ltd., Poole, UK) for reducing non specific binding.
(§9) In order to determine the competitive inhibition binding curves, eight different concentrations of each compound were used.
(§10) Incubation was stopped by addition of TME buffer (at 4° C.) containing 5 mg/ml of BSA, and subsequent filtration under vacuum by Whatman GFC filters pretreated with 0.5% of polyethylamine (PEI) and by using a filtering device (Brandell, Gaithersburg, Md., USA). The filters were washed 3 times with 5 ml of Tris HCl buffer (pH 7.4, 4° C.) containing 1 mg/ml of BSA and separately placed in plastic vials containing 4 ml of scintillating liquid (Ultima Gold MV, Packard).
(§11) The radioactivity present in the filters was determined by a scintillator spectrophotometer (Tricarb® 2100, Packard, Meridien, USA).
(§12) Protein determination was carried out by the Bradford method by using the protocol and the reactants supplied by Bio-Rad (Milano, Italy).

The target in data set [2] is T2, CB2 receptors (Mus musculus, UniProt P47936).
T2 construct: the complete brain (excluding the cerebellum) and the spleen were quickly dissected and kept in ice; from tissue; host or cells: mouse spleen, membrane preparation
Kind of data set: radioreceptor binding, displacement of [3H]-CP-55,940, CB2 (spleen). The method, then: as §1, §2, §3, §4, §5, §6, §7, §8, §9, §10, §11, §12

Where [3] appears, read: mouse spleen membranes, 1 nM [3H]-CP55.940, 1 hour at 30° C., read-out: CB2 (spleen) Ki.

Read-outs that look alike come from different tables or passages of the source.

T2 sequence (P47936 whole entry): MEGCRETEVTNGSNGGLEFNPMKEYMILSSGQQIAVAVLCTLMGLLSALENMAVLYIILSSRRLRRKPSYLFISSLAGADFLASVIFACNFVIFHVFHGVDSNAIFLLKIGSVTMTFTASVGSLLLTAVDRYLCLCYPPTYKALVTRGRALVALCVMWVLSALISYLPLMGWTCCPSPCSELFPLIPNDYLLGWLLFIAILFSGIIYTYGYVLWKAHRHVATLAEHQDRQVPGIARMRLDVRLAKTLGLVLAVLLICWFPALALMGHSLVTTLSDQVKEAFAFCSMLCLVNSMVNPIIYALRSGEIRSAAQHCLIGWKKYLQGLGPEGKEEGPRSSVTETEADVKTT
T1 sequence (P47746 whole entry): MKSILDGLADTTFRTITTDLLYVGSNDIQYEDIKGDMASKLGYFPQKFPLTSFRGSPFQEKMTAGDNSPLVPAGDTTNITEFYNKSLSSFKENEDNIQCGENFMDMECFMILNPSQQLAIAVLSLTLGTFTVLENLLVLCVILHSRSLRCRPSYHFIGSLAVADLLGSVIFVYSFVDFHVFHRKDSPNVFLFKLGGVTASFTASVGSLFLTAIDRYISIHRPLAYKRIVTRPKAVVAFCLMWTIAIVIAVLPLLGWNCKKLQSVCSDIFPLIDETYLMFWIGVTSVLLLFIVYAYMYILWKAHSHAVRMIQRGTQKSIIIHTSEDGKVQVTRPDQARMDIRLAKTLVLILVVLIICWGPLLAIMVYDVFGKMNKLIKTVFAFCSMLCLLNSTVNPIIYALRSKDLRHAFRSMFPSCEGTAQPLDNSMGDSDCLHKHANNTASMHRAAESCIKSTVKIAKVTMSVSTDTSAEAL

Consider `CC1(C)C2CCC(CNC(=O)c3nn(-c4ccc(Cl)cc4Cl)c4c3CCCc3cc(Cl)ccc3-4)C1C2` (stereo not shown) [Example 3.4, N-myrtanyl-8-chloro-1-(2′,4′-dichlorophenyl)-1,4,5,6-tetrahydrobenzo[6,7]cyclohepta[1,2-c]pyrazol-3-carboxamide], for which the inhibition constant (Ki) worked out at 2.6 ± 0.17 nM in data set [1] and 19.6 ± 1.5 nM in data set [2] (setting [3]).

With `Cc1ccc2c(c1)Cc1c(C(=O)NCC3CCC4CC3C4(C)C)nn(-c3ccc(Cl)cc3Cl)c1-2` (stereo not shown) [Example 3.15, N-myrtanyl-1-(2′,4′-dichlorophenyl)-6-methyl-1,4-dihydroindeno[1,2-c]pyrazole-3-carboxamide], the results for the inhibition constant Ki in data set [1] and in data set [2] (setting [3]) were 350 ± 76 nM and 2.3 ± 0.5 nM, respectively.

Molecule `Cc1ccc2c(c1)oc1c(C(=O)NN3CCCCC3)nn(-c3ccc(Cl)cc3Cl)c12` [Example 3.20, N-piperidinyl-1-(2,4-dichlorophenyl)-6-methyl-1H-benzofuro[3,2-c]pyrazole-3-carboxamide] yielded a melting point of 155 to 157 °C. This molecule showed a Ki in data set [1] of 1790 ± 330 nM. In data set [2], this molecule had a Ki of 12.9 ± 1.1 nM.

Take `Cc1ccc2c(c1)oc1c(C(=O)N[C@H]3C[C@@H](C)CC[C@@H]3C(C)C)nn(-c3ccc(Cl)cc3Cl)c12` [Example 3.24, N-2-isopropyl-5-methyl-cyclohexyl-1-(2,4-dichlorophenyl)-6-methyl-1H-benzofuro[3,2-c]pyrazole-3-carboxamide]: the melting point fell in the range of 70 to 72 °C. Affinity in data set [1] was put at a Ki of 38.2 ± 6 nM. The inhibition constant (Ki) in data set [2] (setting [3]) worked out at 2.3 ± 0.3 nM.

`Cc1ccc2c(c1)oc1c(C(=O)N[C@@H]3C[C@H]4C[C@@H]([C@@H]3C)C4(C)C)nn(-c3ccc(Cl)cc3Cl)c12` [Example 3.25, N-2,6,6-trimethyl-bicyclo[3.1.1]hept-3-yl-1-(2,4-dichlorophenyl)-6-methyl-1H-benzofuro[3,2-c]pyrazole-3-carboxamide] came in with a melting point of 85 to 87 °C. For the same molecule, in data set [1], the affinity corresponds to a Ki of 2400 ± 629 nM. Besides, the Ki in data set [2] was 3.7 ± 0.3 nM.

The molecule `CC1(C)C2CCC(CNC(=O)c3nn(-c4ccc(Cl)cc4Cl)c4c3CCOc3cc(Cl)ccc3-4)C1C2` (stereo not shown) [Example 3.3, N-myrtanyl-8-chloro-1-(2′,4′-dichlorophenyl)-4,5-dihydrobenzo-1H-6oxa-cyclohepta[1,2-c]pyrazol-3-carboxamide] displayed a melting point of 142 to 143 °C. Also, the Ki in data set [1] was 21.7 ± 3 nM. In addition, the inhibition constant Ki in data set [2] (setting [3]) is 325 ± 38 nM.

`Cc1ccc2c(c1)oc1c(C(=O)NC34CC5CC(CC(C5)C3)C4)nn(-c3ccc(Cl)cc3Cl)c12` [Example 3.28, N-adamantan-1yl-1-(2,4-dichlorophenyl)-6-methyl-1H-benzofuro[3,2-c]pyrazole-3-carboxamide]: the melting point was in the range of 210 to 212 °C. Also, the Ki in data set [1] was found to be 363 ± 92 nM. Further, the inhibition constant (Ki) in data set [2] came to 28 ± 6.6 nM.

`Cc1ccc2c(c1)oc1c(C(=O)NC3C4(C)CCC(C4)C3(C)C)nn(-c3ccc(Cl)cc3Cl)c12` (stereo not shown) [Example 3.26, N-1,3,3-trimethyl-bicyclo[2.2.1]hept-2-yl-1-(2,4-dichlorophenyl)-6-methyl-1H-benzofuro[3,2-c]pyrazole-3-carboxamide] displayed a melting point of 84 to 86 °C. The molecule further had an inhibition constant (Ki) in data set [1] of 257 ± 7 nM. Further, the Ki in data set [2] was found to be 2.5 ± 0.3 nM.

The molecule `Cc1ccc2c(c1)oc1c(C(=O)NN3CCCC3)nn(-c3ccc(Cl)cc3Cl)c12` [Example 3.21, N-pyrrolidinyl-1-(2,4-dichlorophenyl)-6-methyl-1H-benzofuro[3,2-c]pyrazole-3-carboxamide] came in with a melting point of 90 to 92 °C. In addition, the inhibitory constant (Ki) in data set [1] is 2720 ± 652 nM. Also, the Ki in data set [2] came out at 29.5 ± 8 nM.

As to `Cc1ccc2c(c1)oc1c(C(=O)NC3C4CC5CC(C4)CC3C5)nn(-c3ccc(Cl)cc3Cl)c12` (stereo not shown) [Example 3.29, N-adamantan-2-yl-1-(2,4-dichlorophenyl)-6-methyl-1H-benzofuro[3,2-c]pyrazole-3-carboxamide], the melting point fell in the range of 209 to 211 °C. The Ki in data set [1] is 537 ± 132 nM. The molecule further returned a Ki in data set [2] of 17.5 ± 0.9 nM.

With `CC1(C)C2CCC(CNC(=O)c3nn(-c4ccc(Cl)cc4Cl)c4c3CCCc3ccc(Cl)cc3-4)C1C2` (stereo not shown) [Example 3.1, N-myrtanyl-9-chloro-1-(2′,4′-dichlorophenyl)-1,4,5,6-tetrahydrobenzo[6,7]cyclohepta[1,2-c]pyrazol-3-carboxamide], the Ki in data set [1] is 20 ± 5 nM; in data set [2] (setting [3]) it was 23.3 ± 1.6 nM.

Turning to `Cc1ccc2c(c1)oc1c(C(=O)NN3CCOCC3)nn(-c3ccc(Cl)cc3Cl)c12` [Example 3.22, N-morpholin-4-yl-1-(2,4-dichlorophenyl)-6-methyl-1H-benzofuro[3,2-c]pyrazole-3-carboxamide], the melting point was in the range of 178 to 180 °C. Besides, the Ki in data set [1] worked out at 4060 ± 64 nM. Besides, the Ki in data set [2] was determined as 37.7 ± 6.3 nM.

The molecule `Cc1ccc2c(c1)oc1c(C(=O)NC3CCCCC3)nn(-c3ccc(Cl)cc3Cl)c12` [Example 3.23, N-cyclohexyl-1-(2,4-dichlorophenyl)-6-methyl-1H-benzofuro[3,2-c]pyrazole-3-carboxamide] had a melting point of 140 to 142 °C. Further, the Ki in data set [1] amounted to 1250 ± 129 nM. The molecule further came in with an inhibition constant Ki in data set [2] of 15.6 ± 4 nM.

`Cc1ccc2c(c1)oc1c(C(=O)NC3CC4CCC3(C)C4(C)C)nn(-c3ccc(Cl)cc3Cl)c12` (stereo not shown) [Example 3.27, N-1,7,7-trimethyl-bicyclo[2.2.1]hept-2-yl-1-(2,4-dichlorophenyl)-6-methyl-1H-benzofuro[3,2-c]pyrazole-3-carboxamide] had a melting point of 78 to 80 °C. Further, in data set [1], the Ki is 469 ± 64 nM. The inhibition constant Ki in data set [2] was 3.5 ± 0.6 nM.

Turning to `Cc1ccc2c(c1)oc1c(C(N)=O)nn(-c3ccc(Cl)cc3Cl)c12` [1-(2,4-dichlorophenyl)-6-methyl-1H-benzofuro [3,2-c]pyrazole-3-carboxamide], the melting point was 185 to 186 °C.
